Laboratory results as given in patent US20240294551A1 (AMGEN INC., priority 2022, published 2024).
Counter-ions that a name gives are not always drawn. Like-named read-outs stand apart in the source and are kept apart here.

Key:
[1] = target: His-tagged KRAS G12D protein (Homo sapiens (Human), UniProt P01116, G12D); test: KRAS G12D TR-FRET Assay; assay type: binding
How it was run: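 His-tagged KRAS G12D (diluted to 20 nM in pH 7.4 HEPES buffer with 10 mM MgCl2 and 10 μM GDP) was preincubated with titrated compound for 30 min at room temperature. Biotinylated KRPep-2d peptide (diluted to 20 nM) was then added for 1 h, and displacement was monitored by TR-FRET.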

AsPC-1 cells = test: AsPC-1 CTG Assay (CellTiter-Glo cell viability); assay type: cell-based, human; details: first value of the cell, read-out: G12D/C/V Cell Proliferation CTG (72 h) AsPC-1
Method: AsPC-1 and SW620 CTG Assay Protocols
AsPC-1 (human pancreatic adenocarcinoma; ATCC CRL-1682) or SW620 (human colon adenocarcinoma; ATCC CCL-227) cells were cultured in RPMI 1640 medium containing 10% fetal bovine serum and 1× penicillin/streptomycin/L-glutamine. Cells were seeded in 384-well plates at a density of 3.33E+04 cells/mL and incubated at 37° C., 5% CO2, overnight. Serially-diluted compound or DMSO was added to the cells, and plates were incubated at 37° C., 5% CO2 for 72 h. Cell viability was measured using a CellTiter-Glo® Luminescent Cell Viability Assay kit (Promega) according to the manufacturer's protocol. The luminescence signal of treated samples was normalized to DMSO control, and data were analyzed using a 4-parameter logistic model to calculate IC50 values.

[2] = system: Phosphorylation of ERK1/2 in AsPC-1 cells; test: Phospho-ERK1/2 MSD Assay; assay type: cell-based, human
How it was run: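 Read-out: MSD electrochemiluminescent detection of phosphorylated ERK1/2 in whole-cell lysates, fitted to a 4-parameter logistic curve for IC50. Prior to lysis, AsPC-1 cells (25,000 per well) received a 2 h compound dose-response at 37 °C.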

[3] = target: GDP-bound KRAS protein (aa 1-169), containing both G12D and C118A amino acid substitutions (Homo sapiens (Human), UniProt P01116, C118A/G12D); test: KRAS G12D Coupled Nucleotide Exchange Assay; assay type: biochemical
GDP-bound KRAS protein (aa 1-169), containing both G12D and C118A amino acid substitutions, sequence (P01116 other isoform, or with tags, fused parts or gaps G12D/C118A): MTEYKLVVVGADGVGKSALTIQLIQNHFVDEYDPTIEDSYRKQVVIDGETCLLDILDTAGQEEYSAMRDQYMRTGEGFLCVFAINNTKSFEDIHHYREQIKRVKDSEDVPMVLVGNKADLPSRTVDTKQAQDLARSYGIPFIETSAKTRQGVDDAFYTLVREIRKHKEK

[4] = TR-FRET, read-out: KRAS G12D Binding
[5] = Homo sapiens, ASPC1, 72 h, AsPC-1 cells (G12D), 72 h
[6] = Homo sapiens, ASPC1, 2 h, read-out: 2 h p-ERK (AsPC-1 cells)
[7] = 2 hours compound pre-incubation, read-out: KRAS G12D Coupled Exchange
[8] = read-out: KRAS G12D Binding IC50
[9] = Homo sapiens, ASPC1, 72 h, AsPC-1, 72 h
[10] = Homo sapiens, ASPC1, 2 h, read-out: 2 h p-ERK (AsPC-1 cells), IC50
[11] = read-out: KRAS G12D Coupled Exchange IC50

His-tagged KRAS G12D protein, sequence (P01116 other isoform, or with tags, fused parts or gaps G12D): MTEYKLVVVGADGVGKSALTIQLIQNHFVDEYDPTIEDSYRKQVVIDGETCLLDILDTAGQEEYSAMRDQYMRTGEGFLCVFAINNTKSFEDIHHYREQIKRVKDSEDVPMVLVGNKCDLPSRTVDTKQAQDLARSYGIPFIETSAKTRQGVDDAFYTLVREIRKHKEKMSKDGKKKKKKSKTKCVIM

SMILES | IC50 [1, 4] [nM] | IC50 (AsPC-1 cells; [5]) [nM] | IC50 [2, 6] [nM] | IC50 [3, 7] [nM] | IC50 [1, 8] [nM] | IC50 (AsPC-1 cells; [9]) [nM] | IC50 [2, 10] [nM] | IC50 [3, 11] [nM] | IC50 (AsPC-1 cells; AsPC-1, 72 h) [nM] | IC50 ([2]; 2 h, read-out: 2 h p-ERK (AsPC-1 cells), IC50) [nM]
C[C@@]12CCCN(C1)c1nc(OC[C@@]34CCCN3C[C@H](F)C4)nc3c(F)c(ncc13)-c1cccc3ccc(F)c(c13)CC[C@@H](F)C(=O)N2 [Example 2, (15R,18R)-18,22,31-trifluoro-8-(((2R,7aS)-2-fluorotetrahydro-1H-pyrrolo[1,2-a]pyrrol-7a(5H)-yl)methoxy)-15-methyl-3,7,9,11,16-pentaazahexacyclo[19.7.1.1˜2,6˜.1˜11,15˜.0˜5,10˜.0˜25,29˜]hentriaconta-1(28),2(31),3,5,7,9,21,23,25(29),26-decaen-17-one] | – | – | – | – | 50 | 4110 | 1400 | 24 | – | –
C[C@@]12CCCN(C1)c1nc(OC[C@@]34CCCN3C[C@H](F)C4)nc3c(F)c(ccc13)-c1cc(O)cc3ccc(F)c(c13)CCCC(=O)N2 [Example 16, (15R)-22,31-Difluoro-8-(((2R,7aS)-2-fluorotetrahydro-1H-pyrrolo[1,2-a]pyrrol-7a(5H)-yl)methoxy)-27-hydroxy-15-methyl-7,9,11,16-tetraazahexacyclo[19.7.1.1˜2,6˜.1˜11,15˜.0˜5,10˜.0˜25,29˜]hentriaconta-1(28),2(31),3,5,7,9,21,23,25(29),26-decaen-17-one bis(2,2,2-trifluoroacetate)] | – | – | – | – | 6 | 1200 | 92 | 5 | – | –
COc1c2ncc3c(nc(OC[C@@]45CCCN4C[C@H](F)C5)nc13)N1CCC[C@](C)(C1)NC(=O)CCCc1c(F)ccc3cc(O)cc-2c13 [Example 19, (15R)-22-Fluoro-8-(((2R,7aS)-2-fluorotetrahydro-1H-pyrrolo[1,2-a]pyrrol-7a(5H)-yl)methoxy)-27-hydroxy-31-methoxy-15-methyl-3,7,9,11,16-pentaazahexacyclo[19.7.1.1˜2,6˜.1˜11,15˜.0˜5,10˜.0˜25,29˜]hentriaconta-1(28),2(31),3,5,7,9,21,23,25(29),26-decaen-17-one] | – | – | – | – | 7 | 5000 | 1860 | 5 | – | –
Cc1cc2[nH]ncc2c2c1CCCCC(=O)N[C@]1(C)CCCN(C1)c1nc(OC[C@@]34CCCN3C[C@H](F)C4)nc3c(F)c-2ncc13 [Example 20, (17R)-30-Fluoro-24-(((2R,7aS)-2-fluorotetrahydro-1H-pyrrolo[1,2-a]pyrrol-7a(5H)-yl)methoxy)-9,17-dimethyl-5,6,16,21,23,25,29-heptaazahexacyclo[24.3.1.1˜17,21˜.0˜2,10˜.0˜3,7˜.0˜22,27˜]hentriaconta-1(30),2,4,7,9,22,24,26,28-nonaen-15-one bis(2,2,2-trifluoroacetate)] | – | – | – | – | 20 | 2220 | 823 | 22 | – | –
C[C@@]12CCCN(C1)c1nc(OC[C@@]34CCCN3C[C@H](F)C4)nc3c(F)c(ncc13)-c1cc(O)cc3c1[C@@H](CCCC(=O)N2)CCC3 [Example 27, (15R,21R)-31-Fluoro-8-(((2R,7aS)-2-fluorotetrahydro-1H-pyrrolo[1,2-a]pyrrol-7a(5H)-yl)methoxy)-27-hydroxy-15-methyl-3,7,9,11,16-pentaazahexacyclo[19.7.1.1˜2,6˜.1˜11,15˜.0˜5,10˜.0˜25,29˜]hentriaconta-1(29),2(31),3,5,7,9,25,27-octaen-17-one 2,2,2-trifluoroacetate salt] | – | – | – | – | 7 | 661 | 180 | 5 | – | –
Cc1cc2[nH]ncc2c2c1CCCCC(=O)O[C@]1(C)CCCN(C1)c1nc(OC[C@@]34CCCN3C[C@H](F)C4)nc3c(F)c-2ncc13 [Example 32, (17R)-30-fluoro-24-(((2R,7aS)-2-fluorotetrahydro-1H-pyrrolo[1,2-a]pyrrol-7a(5H)-yl)methoxy)-9,17-dimethyl-16-oxa-5,6,21,23,25,29-hexaazahexacyclo[24.3.1.1~17,21~.0~2,10~.0~3,7~.0~22,27~]hentriaconta-1(30),2,4,7,9,22,24,26,28-nonaen-15-one] | – | – | – | – | 5 | 422 | 43 | 3 | – | –
O=C1CCCc2c(F)ccc3cc(O)cc(c23)-c2ncc3c(nc(OC[C@@]45CCCN4C[C@H](F)C5)nc3c2F)N2CCC[C@H](C2)O1 [Example 41, (15R)-22,31-Difluoro-8-(((2R,7aS)-2-fluorotetrahydro-1H-pyrrolo[1,2-a]pyrrol-7a(5H)-yl)methoxy)-27-hydroxy-16-oxa-3,7,9,11-tetraazahexacyclo[19.7.1.1˜2,6˜.1˜11,15˜.0˜5,10˜.0˜25,29˜]hentriaconta-1(28),2(31),3,5,7,9,21,23,25(29),26-decaen-17-one 2,2,2-trifluoroacetate salt] | – | – | – | – | 3 | 47 | 3 | 2 | – | –

Next, values leading:

IC50 [1, 4] [nM] | IC50 (AsPC-1 cells; [5]) [nM] | IC50 [2, 6] [nM] | IC50 [3, 7] [nM] | IC50 [1, 8] [nM] | IC50 (AsPC-1 cells; [9]) [nM] | IC50 [2, 10] [nM] | IC50 [3, 11] [nM] | IC50 (AsPC-1 cells; AsPC-1, 72 h) [nM] | IC50 ([2]; 2 h, read-out: 2 h p-ERK (AsPC-1 cells), IC50) [nM] | SMILES
27 | 3120 | 673 | 15 | – | – | – | – | – | – | Fc1c2ncc3c(nc(OC[C@@]45CCCN4C[C@H](F)C5)nc13)N1CCOC[C@H](Cc3ncc(o3)CCc3c(Cl)cc4[nH]ncc4c3-2)C1 (single isomer, unassigned) [Example 375]
16 | 2060 | 350 | 11 | – | – | – | – | – | – | Fc1c2ncc3c(nc(OC[C@@]45CCCN4C[C@H](F)C5)nc13)N1CCOC[C@@H](Cc3ncc(o3)CCc3c(Cl)cc4[nH]ncc4c3-2)C1 (single isomer, unassigned) [Example 376]
15 | 817 | 371 | 8 | – | – | – | – | – | – | CN(C)CC1(COc2nc3c4cnc(c(F)c4n2)-c2c(c(Cl)cc4[nH]ncc24)CCCCOCC2(F)CCCCN3C2)CC1 (stereo in doubt) [Example 400, 1-(1-((((26R)-18-chloro-26,32-difluoro-24-oxa-1,3,5,9,14,15-hexaazahexacyclo[24.4.1.1~6,10~.0~2,7~.0~11,19~.0~12,16~]dotriaconta-2,4,6,8,10(32),11,13,16,18-nonaen-4-yl)oxy)methyl)cyclopropyl)-N,N-dimethylmethanamine]
5 | 386 | 289 | 3 | – | – | – | – | – | – | CN(C)CC1(COc2nc3c4cnc(c(F)c4n2)-c2c(c(Cl)cc4[nH]ncc24)CCCCOCC2(F)CCCCN3C2)CC1 (stereo in doubt) [Example 401, 1-(1-((((26S)-18-chloro-26,32-difluoro-24-oxa-1,3,5,9,14,15-hexaazahexacyclo[24.4.1.1~6,10~.0~2,7~.0~11,19~.0~12,16~]dotriaconta-2,4,6,8,10(32),11,13,16,18-nonaen-4-yl)oxy)methyl)cyclopropyl)-N,N-dimethylmethanamine]
– | – | – | – | 6 | 809 | 77 | 4 | – | – | Cc1cc2[nH]ncc2c2c1CCCCC(=O)O[C@]1(CF)CCCN(C1)c1nc(OC[C@@]34CCCN3C[C@H](F)C4)nc3c(F)c-2ncc13 [Example 33, (17R)-30-fluoro-17-(fluoromethyl)-24-(((2R,7aS)-2-fluorotetrahydro-1H-pyrrolo[1,2-a]pyrrol-7a(5H)-yl)methoxy)-9-methyl-16-oxa-5,6,21,23,25,29-hexaazahexacyclo[24.3.1.1~17,21~.0~2,10~.0~3,7~.0~22,27~]hentriaconta-1(30),2,4,7,9,22,24,26,28-nonaen-15-one]
– | – | – | – | 3 | 111 | 8 | 1 | – | – | O=C1CCCCc2c(Cl)cc3[nH]ncc3c2-c2ncc3c(nc(OC[C@@]45CCCN4C[C@H](F)C5)nc3c2F)N2CCC[C@H](C2)O1 [Example 36, (17R)-9-Chloro-30-fluoro-24-(((2R,7aS)-2-fluorotetrahydro-1H-pyrrolo[1,2-a]pyrrol-7a(5H)-yl)methoxy)-16-oxa-5,6,21,23,25,29-hexaazahexacyclo[24.3.1.1˜17,21˜.0˜2,10˜.0˜3,7˜.0˜22,27˜]hentriaconta-1(30),2,4,7,9,22,24,26,28-nonaen-15-one bis(2,2,2-trifluoroacetate)]
– | – | – | – | 12 | – | – | 8 | 191 | 16 | Cc1cc2[nH]ncc2c2c1CCCOC(=O)CC1CCCN(C1)c1nc(OC[C@@]34CCCN3C[C@H](F)C4)nc3c(F)c-2ncc13 (stereo partly drawn) [Example 39]
– | – | – | – | 5 | 90 | 8 | 3 | – | – | Cc1cc2[nH]ncc2c2c1CCCOC(=O)C[C@@H]1CCCN(C1)c1nc(OC[C@@]34CCCN3C[C@H](F)C4)nc3c(F)c-2ncc13 [Example 40]
